Measured values reported in US7884083B2, “Immunomodulatory compositions, methods of making, and methods of use thereof” (Dynavax Technologies Corporation, priority 2002, dated 2011).

Assays:
[1] = tested on: human peripheral blood lymphocytes (PBMCs); assay: hPBMC assay: IFN-γ and IFN-α production by human PBMCs (ELISA); type: cell-based
[2] = dodecyl spacer measured as dialcohol precursor; cited from earlier work
[3] = hydrophobic/lipophilic balance value; cited from earlier work
[4] = Donor 28212, Controls, 20 μg/ml oligonucleotide, 100 μg/ml polymyxin
[5] = Donor 28213, Controls, 20 μg/ml oligonucleotide, 100 μg/ml polymyxin
[6] = Donor 28232, no Time given, 20 μg/ml oligonucleotide, 100 μg/ml polymyxin
[7] = Donor 28233, no Time given, 20 μg/ml oligonucleotide, 100 μg/ml polymyxin
[8] = Donor # 20, 20 μg/ml oligonucleotide, 100 μg/ml PMXB, 24 hours
[9] = Donor # 37, 20 μg/ml oligonucleotide, 100 μg/ml PMXB, 24 hours
[10] = Donor # 75, 20 μg/ml oligonucleotide, 100 μg/ml PMXB, 24 hours
[11] = Donor # 86, 20 μg/ml oligonucleotide, 100 μg/ml PMXB, 24 hours
[12] = Donor # 87, 20 μg/ml oligonucleotide, 100 μg/ml PMXB, 24 hours
[13] = Donor # 88, 20 μg/ml oligonucleotide, 100 μg/ml PMXB, 24 hours
[14] = Donor # 89, 20 μg/ml oligonucleotide, 100 μg/ml PMXB, 24 hours
[15] = Donor # 90, 20 μg/ml oligonucleotide, 100 μg/ml PMXB, 24 hours
[16] = Donor # 91, 20 μg/ml oligonucleotide, 100 μg/ml PMXB, 24 hours
[17] = Donor # 95, 20 μg/ml oligonucleotide, 100 μg/ml PMXB, 24 hours
[18] = Donor # 96, 20 μg/ml oligonucleotide, 100 μg/ml PMXB, 24 hours
[19] = Donor # 97, 20 μg/ml oligonucleotide, 100 μg/ml PMXB, 24 hours
[20] = Mean (Table 4), Controls, 20 μg/ml oligonucleotide, 100 μg/ml polymyxin
[21] = Mean (Table 6), no Time given, 20 μg/ml oligonucleotide, 100 μg/ml polymyxin
[22] = Mean of donors (Table 2), 20 μg/ml oligonucleotide, 100 μg/ml PMXB, 24 hours
[23] = Table 3, Donor 1, PMXB 100 μg/ml, AMTB 10 μg/ml, serum containing medium
[24] = Table 3, Donor 2, PMXB 100 μg/ml, AMTB 10 μg/ml, serum containing medium
[25] = Table 3, Mean, PMXB 100 μg/ml, AMTB 10 μg/ml, serum containing medium
[26] = Table 9, Mean, 20 μg/ml oligonucleotide, 100 μg/ml polymyxin
[27] = Table 9, donor 149, 20 μg/ml oligonucleotide, 100 μg/ml polymyxin
[28] = Table 9, donor 208, 20 μg/ml oligonucleotide, 100 μg/ml polymyxin
[29] = Donor 198, no Time given, 20 μg/ml oligonucleotide
[30] = Donor 199, no Time given, 20 μg/ml oligonucleotide
[31] = Donor # 9, 20 μg/ml oligonucleotide, 100 μg/ml PMXB, 24 hours
[32] = Donor # 94, 20 μg/ml oligonucleotide, 100 μg/ml PMXB, 24 hours
[33] = Mean (Table 5), no Time given, 20 μg/ml oligonucleotide
[34] = Table 10, donor 1, 20 μg/ml oligonucleotide, 100 μg/ml polymyxin derivative added separately, 24 hours
[35] = Table 10, donor 2, 20 μg/ml oligonucleotide, 100 μg/ml polymyxin derivative added separately, 24 hours
[36] = Table 10, donor 3, 20 μg/ml oligonucleotide, 100 μg/ml polymyxin derivative added separately, 24 hours
[37] = Table 10, donor 4, 20 μg/ml oligonucleotide, 100 μg/ml polymyxin derivative added separately, 24 hours
[38] = Table 10, donor 5, 20 μg/ml oligonucleotide, 100 μg/ml polymyxin derivative added separately, 24 hours
[39] = Table 10, donor 6, 20 μg/ml oligonucleotide, 100 μg/ml polymyxin derivative added separately, 24 hours
[40] = Table 10, mean of 6 donors, 20 μg/ml oligonucleotide, 100 μg/ml polymyxin derivative added separately, 24 hours

Polymyxin B [PMXB]
IFN-α [1, 4]: 268 pg/mL | IFN-γ [1, 4]: 5 pg/mL | IFN-α [1, 5]: 213 pg/mL | IFN-γ [1, 5]: 4 pg/mL | IFN-Υ [1, 6]: 8 pg/mL | IFN-α [1, 6]: 16 pg/mL | IFN-Υ [1, 7]: 7 pg/mL | IFN-α [1, 7]: 84 pg/mL | IFN-γ [1, 8]: 20 pg/mL | IFN-α [1, 9]: 0 pg/mL | IFN-γ [1, 9]: 228 pg/mL | IFN-γ [1, 10]: 6 pg/mL | IFN-α [1, 11]: 353 pg/mL | IFN-γ [1, 11]: 23 pg/mL | IFN-α [1, 12]: 326 pg/mL | IFN-γ [1, 12]: 33 pg/mL | IFN-α [1, 13]: 33 pg/mL | IFN-γ [1, 13]: 112 pg/mL | IFN-α [1, 14]: 9 pg/mL | IFN-γ [1, 14]: 3 pg/mL | IFN-α [1, 15]: 0 pg/mL | IFN-γ [1, 15]: 0 pg/mL | IFN-α [1, 16]: 0 pg/mL | IFN-γ [1, 16]: 47 pg/mL | IFN-α [1, 17]: 0 pg/mL | IFN-γ [1, 17]: 17 pg/mL | IFN-γ [1, 18]: 55 pg/mL | IFN-γ [1, 19]: 21 pg/mL | IFN-α [1, 20]: 241 pg/mL | IFN-γ [1, 20]: 5 pg/mL | IFN-Υ [1, 21]: 7 pg/mL | IFN-α [1, 21]: 50 pg/mL | IFN-α [1, 22]: 90 pg/mL | IFN-γ [1, 22]: 47 pg/mL | IFN-α [1, 23]: 1 pg/mL | IFN-γ [1, 23]: 23 pg/mL | IFN-α [1, 24]: 0 pg/mL | IFN-γ [1, 24]: 6 pg/mL | IFN-α [1, 25]: 0 pg/mL | IFN-γ [1, 25]: 15 pg/mL | IFN-Υ [1, 26]: 127 pg/mL | IFN-α [1, 26]: 32 pg/mL | IFN-Υ [1, 27]: 195 pg/mL | IFN-α [1, 27]: 32 pg/mL | IFN-Υ ([1]; Table 9, donor 206, 20 μg/ml oligonucleotide, 100 μg/ml polymyxin): 14 pg/mL | IFN-Υ [1, 28]: 171 pg/mL | IFN-α [1, 28]: 32 pg/mL | IFN-α ([1]; Table 9, donor 209, 20 μg/ml oligonucleotide, 100 μg/ml polymyxin): 32 pg/mL | immunomodulatory activity in the hPBMC assay ([1]; result in words): no immunomodulatory activity on its own

5′-TGACTGTGAACCTTAGAGATGA-3′ (DNA, all phosphorothioate, methylation of C not given here) [−ISS]
IFN-α [1, 29]: 151 pg/mL | IFN-γ [1, 29]: 5 pg/mL | IFN-α [1, 30]: 279 pg/mL | IFN-γ [1, 30]: 18 pg/mL | IFN-α [1, 4]: 225 pg/mL | IFN-γ [1, 4]: 5 pg/mL | IFN-α [1, 5]: 156 pg/mL | IFN-γ [1, 5]: 7 pg/mL | IFN-α [1, 31]: 0 pg/mL | IFN-γ [1, 31]: 0 pg/mL | IFN-γ [1, 8]: 4 pg/mL | IFN-α [1, 9]: 0 pg/mL | IFN-γ [1, 9]: 5 pg/mL | IFN-γ [1, 10]: 1 pg/mL | IFN-α [1, 11]: 15 pg/mL | IFN-γ [1, 11]: 12 pg/mL | IFN-α [1, 12]: 0 pg/mL | IFN-γ [1, 12]: 12 pg/mL | IFN-α [1, 13]: 19 pg/mL | IFN-γ [1, 13]: 70 pg/mL | IFN-α [1, 14]: 17 pg/mL | IFN-γ [1, 14]: 7 pg/mL | IFN-α [1, 15]: 0 pg/mL | IFN-γ [1, 15]: 0 pg/mL | IFN-α [1, 16]: 0 pg/mL | IFN-γ [1, 16]: 30 pg/mL | IFN-α [1, 32]: 0 pg/mL | IFN-γ [1, 32]: 0 pg/mL | IFN-α [1, 17]: 0 pg/mL | IFN-γ [1, 17]: 4 pg/mL | IFN-γ [1, 18]: 9 pg/mL | IFN-γ [1, 19]: 5 pg/mL | IFN-α [1, 20]: 191 pg/mL | IFN-γ [1, 20]: 6 pg/mL | IFN-α [1, 33]: 215 pg/mL | IFN-γ [1, 33]: 12 pg/mL | IFN-α [1, 22]: 5 pg/mL | IFN-γ [1, 22]: 11 pg/mL | IFN-α [1, 23]: 3 pg/mL | IFN-γ [1, 23]: 1 pg/mL | IFN-α [1, 24]: 0 pg/mL | IFN-γ [1, 24]: 0 pg/mL | IFN-α [1, 25]: 1 pg/mL | IFN-γ [1, 25]: 0 pg/mL | IFN-α [1, 34]: 52 pg/mL | IFN-γ [1, 34]: 2 pg/mL | IFN-α [1, 35]: 52 pg/mL | IFN-γ [1, 35]: 2 pg/mL | IFN-α [1, 36]: 52 pg/mL | IFN-γ [1, 36]: 2 pg/mL | IFN-α [1, 37]: 52 pg/mL | IFN-γ [1, 37]: 2 pg/mL | IFN-α [1, 38]: 26 pg/mL | IFN-γ [1, 38]: 10 pg/mL | IFN-α [1, 39]: 26 pg/mL | IFN-γ [1, 39]: 2 pg/mL | IFN-α [1, 40]: 43 pg/mL | IFN-γ [1, 40]: 3 pg/mL

polymyxin B nonapeptide [PMXB-9]
IFN-γ/α-enhancing activity in comparison to PMXB or CLN ([1]; in words, Table 10 experiment): substantially reduced

OCCCCCCCCCCCCO [1,12-dihydroxydodecane]
solubility [2]: < 5000 µg/mL

polyethylene glycol sorbitan monooleate
HLB [3]: 15.4
